Test results as given in PubChem BioAssay AID1996.
Values after ≈ are worked out from the molar mass of the structure shown.

Settings: buffer; pH 7.4; 200.0 µM
`O=c1[nH]c(=S)n(Cc2ccc(F)cc2)c(O)c1C=NCCCn1ccnc1` gave a solubility kinetic of over 58.1 µg/mL.
`Cc1ccccc1NC(=S)NC12CN3CN(CN(C3)C1)C2` showed a solubility kinetic of over 45.5 µg/mL.
`CS(=O)(=O)Nc1cc2c3c(c1)CCC(=O)N3CCC2` gave a solubility kinetic of 39.9 µg/mL (≈ 142 µM).
In the case of `S=C1NCN(Cc2cccnc2)CN1Cc1ccccc1`, the solubility kinetic is reported as over 44.8 µg/mL.
In the case of `CC1(C(=O)NCC2CCCO2)Oc2cccnc2NC1=O` (centres undefined), the solubility kinetic is reported as over 43.7 µg/mL.
`O=c1cc(-c2ccccc2)nc(SCc2ccccc2F)[nH]1` showed a solubility kinetic of under 0.3 µg/mL.
For `O=C(NC(=S)N1CCCC1)c1cccc([N+](=O)[O-])c1`, the solubility kinetic was 39.5 µg/mL (≈ 141 µM).
`CCOc1ccc(Cl)cc1S(=O)(=O)NCc1ccccn1` showed a solubility kinetic of over 49 µg/mL.
Work on `O=c1[nH]c(-c2cccnc2)nc2sc(-c3ccccc3)cc12` yielded a solubility kinetic of 0.2 µg/mL (≈ 0.655 µM).
In the case of `COc1ccc(C(=O)NC(=S)NC(C)c2ccccc2)cc1` (centres undefined), the solubility kinetic is reported as 2.6 µg/mL (≈ 8.27 µM).
`Cc1c(C(=O)O)c(C(=O)O)c2n1CCS2` gave a solubility kinetic of over 34.1 µg/mL.
For `CC(=O)c1cccc(NC(=O)CC(C)n2ccnc2)c1` (centres undefined), the solubility kinetic was over 40.7 µg/mL.
For `COc1ccc(CCC(=O)NCc2ccccc2Cl)cc1OC`, the solubility kinetic was over 50.1 µg/mL.
`CN(c1ccc(C(=O)COC(=O)C2CC2)cc1)S(C)(=O)=O` showed a solubility kinetic of over 46.7 µg/mL.
`O=C(CN1CCCc2ccccc21)Nc1ccc(F)cc1[N+](=O)[O-]` gave a solubility kinetic of under 0.2 µg/mL.
`CCNC(=O)[C@H]1O[C@@H](n2cnc3c(N)ncnc32)[C@H](O)[C@@H]1O` showed a solubility kinetic of over 46.2 µg/mL.
`CCC1CCCCN1C(=O)CCCc1ccccc1` (centres undefined) gave a solubility kinetic of 33.2 µg/mL (≈ 128 µM).
With `N#Cc1ccc(COC(=O)c2ccc3c(c2)OCO3)cc1` the solubility kinetic was 2.3 µg/mL (≈ 8.18 µM).
`O=C(COc1ccc(Br)cc1)N1CCc2ccccc2C1` showed a solubility kinetic of 20.8 µg/mL (≈ 60.1 µM).
Work on `Nc1ccc(C(=O)NCCCSc2ccccc2)cc1[N+](=O)[O-]` yielded a solubility kinetic of 1.6 µg/mL (≈ 4.83 µM).
In the case of `CC(C)(C)NS(=O)(=O)c1ccc(NC(=S)NC(=O)C2CCC2)cc1`, the solubility kinetic is reported as 1.1 µg/mL (≈ 2.98 µM).
In the case of `CN(C)c1cccc(C(=O)OCC(=O)NC2CCCC2)c1`, the solubility kinetic is reported as 36.6 µg/mL (≈ 126 µM).
For `Cc1nc2ccc(Cl)cc2c(=O)n1-c1ccccc1Cl`, the solubility kinetic was 10.4 µg/mL (≈ 34.1 µM).
`Cc1ccc(C)c(NC(=O)N2CCc3ccccc3C2)c1` showed a solubility kinetic of 18.9 µg/mL (≈ 67.4 µM).
Compound `COc1ccc(S(=O)(=O)NCCN2CCNC2=O)cc1OC` has a solubility kinetic of 47.9 µg/mL (≈ 145 µM).
Compound `CCCC(=O)Nc1c(-c2cccc(C)c2)c(=O)c2ccccc2n1C` has a solubility kinetic of 13.1 µg/mL (≈ 39.2 µM).
For `COc1ccccc1CCC(=O)OCC(=O)NC1CCCCC1`, the solubility kinetic was 43.7 µg/mL (≈ 137 µM).
Work on `O=[N+]([O-])c1ccc(SCCc2ccncc2)cc1` yielded a solubility kinetic of 31.5 µg/mL (≈ 121 µM).
`Cc1ccsc1C(=O)OCC(=O)Nc1nnc(-c2ccccc2)o1` showed a solubility kinetic of over 51.5 µg/mL.
`Nc1ncnc2c1ncn2CCc1ccccc1` gave a solubility kinetic of over 35.9 µg/mL.
Work on `CC1CCCC(C)N1C(=O)COC(=O)COc1ccc(C#N)cc1` (centres undefined) yielded a solubility kinetic of over 49.6 µg/mL.
Work on `Cc1nc(C(F)(F)F)ccc1C(=O)Nc1ccc2ccccc2n1` yielded a solubility kinetic of 3.3 µg/mL (≈ 9.96 µM).
`Cc1cc(C)c2c(N)c(C(=O)Nc3ccc(C)c(C)c3)sc2n1` showed a solubility kinetic of 1.1 µg/mL (≈ 3.38 µM).
In the case of `CC(=O)c1ccc(S(=O)(=O)N2CCCc3ccccc32)cc1`, the solubility kinetic is reported as 24.5 µg/mL (≈ 77.7 µM).
Work on `CCNc1c(NCC)c(=O)c1=O` yielded a solubility kinetic of 23.2 µg/mL (≈ 138 µM).
For `C/C(CC(=O)Nc1ccccn1)=N\NC(=O)c1cnccn1`, the solubility kinetic was over 44.7 µg/mL.
`O=C(Nc1ccc(S(=O)(=O)Nc2ncccn2)cc1)C12CC3CC(CC(Cl)(C3)C1)C2` gave a solubility kinetic of over 67 µg/mL.
Work on `Cc1cccc(CC2CC(=O)N(c3ccc([N+](=O)[O-])cc3)C2=O)c1` (centres undefined) yielded a solubility kinetic of 21 µg/mL (≈ 64.7 µM).
With `CN(C)S(=O)(=O)c1ccc(NC(=O)CN2CCCCCC2)cc1` the solubility kinetic was 50.9 µg/mL (≈ 150 µM).
In the case of `N#Cc1ccccc1NC(=O)CN1C(=O)NC2(CCCC2)C1=O`, the solubility kinetic is reported as over 46.8 µg/mL.
In the case of `CCOc1ccc(CCNC(=O)c2ccc(=O)[nH]c2)cc1OCC`, the solubility kinetic is reported as over 49.6 µg/mL.
`Cc1cc(C)c(S(=O)(=O)c2cccc(C)c2C)c(=O)[nH]1` gave a solubility kinetic of over 43.7 µg/mL.
In the case of `COc1ccc(CN2C(=O)c3ccccc3C2=O)cc1C(=O)O`, the solubility kinetic is reported as over 46.7 µg/mL.
`CC(C)C(=O)NNC(=O)c1csc(-c2cccs2)n1` showed a solubility kinetic of over 44.3 µg/mL.
In the case of `COc1ccc(CCNC(=S)NCCc2ccc(OC)c(OC)c2)cc1OC`, the solubility kinetic is reported as over 60.7 µg/mL.
`O=C(Cc1ccc(F)cc1)NC1CCSC1=O` (centres undefined) gave a solubility kinetic of over 38 µg/mL.
Compound `N/C(=N\OC(=O)/C=C/c1ccccc1Cl)c1ccncc1` has a solubility kinetic of 28.2 µg/mL (≈ 93.5 µM).
In the case of `Cc1nc(-c2ccc3c(c2)CCC(=O)N3)cs1`, the solubility kinetic is reported as 31.7 µg/mL (≈ 130 µM).
Work on `CCc1ccc(NC(=O)c2[nH]c(C)c(C(C)=O)c2C)cc1` yielded a solubility kinetic of 5.1 µg/mL (≈ 17.9 µM).
With `COc1cc(NC(=O)c2ccccc2[N+](=O)[O-])ccc1NC(=O)c1cc2ccccc2o1` the solubility kinetic was 0.7 µg/mL (≈ 1.62 µM).
`CCNS(=O)(=O)c1ccc(CCC(=O)NCc2cccnc2)cc1` showed a solubility kinetic of 35.6 µg/mL (≈ 102 µM).
With `CCOc1ccc(CNc2ccc(N3CCCC3)cc2)cc1` the solubility kinetic was 3.1 µg/mL (≈ 10.5 µM).
In the case of `O=C(NC(=S)NCc1ccco1)c1ccc([N+](=O)[O-])cc1`, the solubility kinetic is reported as 4.6 µg/mL (≈ 15.1 µM).
With `Cc1ccc(S(=O)(=O)NC(=O)Nc2cccc(S(=O)(=O)N(C)C)c2)cc1` the solubility kinetic was over 59.6 µg/mL.
Compound `CC(C)c1ccc(NC2CCCN(C(=O)c3ccoc3)C2)cc1` (centres undefined) has a solubility kinetic of over 46.9 µg/mL.
Work on `O=C(Nc1sc2c(c1C(=O)O)CCCC2)c1cccc(Cl)c1` yielded a solubility kinetic of 45.5 µg/mL (≈ 135 µM).
Work on `COc1ccc(C(O)c2ncc(C(F)(F)F)cc2Cl)cc1` (centres undefined) yielded a solubility kinetic of over 47.7 µg/mL.
In the case of `CCCCN(CC)C(=O)c1cc2c(=O)n3cccc(C)c3nc2s1`, the solubility kinetic is reported as 44.5 µg/mL (≈ 130 µM).
With `O=C(Oc1c(-c2ccccc2)c(=O)n2c3c(cccc13)CC2)c1cccc([N+](=O)[O-])c1` the solubility kinetic was 5.2 µg/mL (≈ 12.6 µM).
Work on `CC(C)(C)n1cnnc1Sc1ccc([N+](=O)[O-])cn1` yielded a solubility kinetic of over 41.9 µg/mL.
Work on `Cc1nc([N+](=O)[O-])c(N2CCOCC2)n1Cc1ccccc1` yielded a solubility kinetic of 44.7 µg/mL (≈ 148 µM).
In the case of `Cc1nc(NC(=O)CSC2=NCCS2)sc1C(=O)N(C)C`, the solubility kinetic is reported as over 51.7 µg/mL.
For `CCS(=O)(=O)N1CCC(c2nc3ccccc3[nH]2)CC1`, the solubility kinetic was 40 µg/mL (≈ 136 µM).
In the case of `COCCCNC(=S)Nc1cc2oc3ccccc3c2cc1OC`, the solubility kinetic is reported as 3.9 µg/mL (≈ 11.3 µM).
Work on `COc1ccccc1NC(=O)COC(=O)CCC1CCCC1` yielded a solubility kinetic of 42.1 µg/mL (≈ 138 µM).
Work on `CCCCN(CCCC)CCCOC(=O)c1ccc(N)cc1` yielded a solubility kinetic of over 46 µg/mL.
Work on `CN1C(=O)Cc2cc(S(=O)(=O)NCCc3ccccc3)ccc21` yielded a solubility kinetic of 39.1 µg/mL (≈ 118 µM).
In the case of `Cc1c(C(=O)NCC2CCCO2)oc2c(Cl)cccc12` (centres undefined), the solubility kinetic is reported as over 44.1 µg/mL.
For `Cc1cccc(C(=O)N/C(=C\c2ccco2)C(=O)N2CCCCCC2)c1`, the solubility kinetic was 50.3 µg/mL (≈ 143 µM).
Compound `CC(=O)c1cccc(S(=O)(=O)NCCC(=O)O)c1` has a solubility kinetic of 25.4 µg/mL (≈ 93.6 µM).
Work on `N#C/C(=C\Nc1ccc(Cl)cn1)S(=O)(=O)c1ccccn1` yielded a solubility kinetic of 3.7 µg/mL (≈ 11.5 µM).
For `O=C(c1ccc(Cl)c(S(=O)(=O)N2CCc3ccccc32)c1)N1CCN(c2ccccc2O)CC1`, the solubility kinetic was 11.3 µg/mL (≈ 22.7 µM).
In the case of `CCOc1ccc2oc(C(=O)Nc3ccc4c(c3)OCO4)c(C)c2c1`, the solubility kinetic is reported as 5.7 µg/mL (≈ 16.8 µM).
In the case of `Cc1cnc(C(=O)N2CCN(S(=O)(=O)c3cccc(Br)c3)CC2)cn1`, the solubility kinetic is reported as over 63.8 µg/mL.
`Cc1ccc(OCCn2c(C)nc3ccccc32)cc1` gave a solubility kinetic of 9.6 µg/mL (≈ 36 µM).
With `COc1ccc(OC)c(NC(=O)COC(=O)C2CCC2)c1` the solubility kinetic was over 44 µg/mL.
`N/C(=N/OC(=O)c1ccccc1Cl)c1ncc([N+](=O)[O-])s1` gave a solubility kinetic of 1.3 µg/mL (≈ 3.98 µM).
`COc1ccc(-n2cc([N+](=O)[O-])c(=O)c3ccc(Cl)cc32)cc1` showed a solubility kinetic of 0.7 µg/mL (≈ 2.12 µM).
In the case of `Cc1ccccc1OCCCn1c(CO)nc2ccccc21`, the solubility kinetic is reported as 12.9 µg/mL (≈ 43.5 µM).
Compound `CCOc1ncccc1C(=O)NCc1ccccc1F` has a solubility kinetic of over 41.1 µg/mL.
Work on `COc1ccc(NC(=O)COC(=O)c2ccc(F)cc2F)cc1` yielded a solubility kinetic of over 48.2 µg/mL.
`O=C(NCc1ccco1)NC(=O)c1csc([N+](=O)[O-])c1` showed a solubility kinetic of 0.6 µg/mL (≈ 2.03 µM).
Work on `CCOc1ccccc1NC(=O)COC(=O)/C=C/c1cccs1` yielded a solubility kinetic of 3.1 µg/mL (≈ 9.35 µM).
`O=C(CSc1cccc[n+]1[O-])Nc1cc(Cl)ccc1[N+](=O)[O-]` showed a solubility kinetic of over 51 µg/mL.
